We go through 15 compounds from PubChem BioAssay (NCI).

Values joined by “and” are separate entries in the source; they are usually repeats but may differ in a detail not shown here. Equal entries are not always repeated.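 Following 48 hours of exposure in 96-well plates, responses at five concentrations were used to interpolate endpoints linearly. At the GI50, growth is halved. TGI marks complete inhibition of growth.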

Some test systems named below: MALME-3M melanoma; SN12C renal; OVCAR-8 ovarian; NCI-H23 lung; NCI-H226 lung; M14 melanoma; SF-268 CNS; HOP-92 NSCLC; TK-10 renal; MOLT-4 leukemia.
Common to all, as to assay: DTP human tumour cell line panel, 48 h

By TGI is commonly meant the concentration giving total growth inhibition. A lower TGI goes with greater sensitivity of the cells. As for `CCCCCCCCCCCCCCCCCCCCCC(=O)Nc1ccn(C2OC(CO)C(O)C2O)c(=O)n1` (stereo not given), the TGI is over 100 µM in the assay with MALME-3M melanoma; over 100 µM in the assay with SN12C renal; over 100 µM in the assay with OVCAR-8 ovarian; over 100 µM in the assay on NCI-H23 lung; over 100 µM in the assay on NCI-H226 lung; 32.6 µM in the assay on M14 melanoma. For the same compound, the TGI in the assay with SF-268 CNS is over 100 µM; with HOP-92 NSCLC, over 100 µM; with TK-10 renal, over 100 µM; in the assay with MOLT-4 leukemia it was over 37.1 µM.

For orientation: GI50 means the concentration at which growth is held to half of that of the control. For the compound `CCCCN(Cc1ccc(F)cc1)c1ccc(CO)c(Cl)c1`, the GI50 with MALME-3M melanoma was 17.7 µM; in the assay on SN12C renal it was 12.5 µM; with OVCAR-8 ovarian it was 14.2 µM; in the assay with NCI-H23 lung, 11.8 µM; in the assay on NCI-H226 lung it was 0.146 µM; in the assay on M14 melanoma, 17.5 µM. The GI50 with SF-268 CNS was 19.3 µM; with HOP-92 NSCLC, 3.32 µM; in the assay with TK-10 renal, 0.319 µM; in the assay on MOLT-4 leukemia, 17.8 µM. In addition, the TGI amounted to 33.8 µM in the assay on MALME-3M melanoma; 25.3 µM in the assay on SN12C renal; 28.5 µM in the assay on OVCAR-8 ovarian; 26.3 µM in the assay on NCI-H23 lung; 0.318 µM in the assay with NCI-H226 lung; 34.6 µM with M14 melanoma. Also, the TGI with SF-268 CNS is 36 µM; in the assay on HOP-92 NSCLC, 19.5 µM; with TK-10 renal, 1.89 µM; with MOLT-4 leukemia, 43.1 µM.

Regarding `COc1ccc(C(C#N)NNc2nc(C)cc(=O)[nH]2)cc1OC` (stereo not given), the TGI in the assay on MALME-3M melanoma, in the assay on SN12C renal, in the assay with OVCAR-8 ovarian, in the assay with NCI-H23 lung, in the assay on NCI-H226 lung and in the assay with M14 melanoma was over 100 µM each time. The TGI in the assay on SF-268 CNS, in the assay with HOP-92 NSCLC, in the assay on TK-10 renal and in the assay on MOLT-4 leukemia was over 100 µM throughout.

For the compound `COc1cc(-c2cn(-c3ccc(Cl)cc3)c(C)c2C(=O)C(F)(F)F)cc(OC)c1OC`, the GI50 with MALME-3M melanoma is over 100 µM; in the assay with SN12C renal, 12.7 µM; in the assay on OVCAR-8 ovarian, over 100 µM; with NCI-H23 lung it was 60.5 µM; in the assay with NCI-H226 lung, over 100 µM; in the assay with M14 melanoma, over 100 µM. Moreover, the GI50 with SF-268 CNS was over 100 µM; in the assay with HOP-92 NSCLC, 2.27 µM; with TK-10 renal, over 100 µM; in the assay with MOLT-4 leukemia, 6.01 µM. In addition, the TGI with MALME-3M melanoma, with SN12C renal, in the assay with OVCAR-8 ovarian, in the assay with NCI-H23 lung, with NCI-H226 lung and in the assay on M14 melanoma was over 100 µM throughout. Moreover, the TGI in the assay with SF-268 CNS is over 100 µM; in the assay with HOP-92 NSCLC, 56 µM; in the assay on TK-10 renal, over 100 µM; in the assay on MOLT-4 leukemia it was over 100 µM.

`CSc1nc2c(nc(N)n2C2OCC(O)C(O)C2O)c(=O)n1C` (stereo not given): the TGI in the assay with MALME-3M melanoma, in the assay with SN12C renal, in the assay with OVCAR-8 ovarian, in the assay with NCI-H23 lung, with NCI-H226 lung and in the assay with M14 melanoma was over 100 µM in each case. Besides, the TGI in the assay on SF-268 CNS, with HOP-92 NSCLC, with TK-10 renal and in the assay with MOLT-4 leukemia was over 100 µM each time.

For the compound `CC12CCC(=O)C=C1CCC1C2C(O)CC2(C)C(c3csc(N)n3)CCC12` (stereo not given), the TGI in the assay on MALME-3M melanoma, in the assay with SN12C renal, in the assay on OVCAR-8 ovarian, in the assay on NCI-H23 lung, in the assay on NCI-H226 lung and in the assay with M14 melanoma was over 100 µM throughout. Also, the TGI in the assay on SF-268 CNS, with HOP-92 NSCLC, in the assay with TK-10 renal and with MOLT-4 leukemia was over 100 µM in each case.

Turning to `CN(C)CCCN1CCc2c([nH]c3ccccc23)C1c1cccnc1` (stereo not given), the TGI with MALME-3M melanoma, in the assay with SN12C renal, in the assay with OVCAR-8 ovarian, in the assay with NCI-H23 lung, with NCI-H226 lung and in the assay with M14 melanoma was over 100 µM in each case. In addition, the TGI with HOP-92 NSCLC, in the assay on TK-10 renal and with MOLT-4 leukemia was over 100 µM throughout.

With `CC1C(=O)C(C)C(c2ccccc2)N(N=O)C1c1ccccc1` (stereo not given), the TGI in the assay on MALME-3M melanoma is over 516 µM; in the assay on SN12C renal it was 981 µM; with OVCAR-8 ovarian, over 946 µM; with NCI-H23 lung, over 779 µM; with NCI-H226 lung, 572 µM; with M14 melanoma, over 581 µM. Also, the TGI with SF-268 CNS was 352 µM; with HOP-92 NSCLC, 78.4 µM and 264 µM; with TK-10 renal, 640 µM; in the assay with MOLT-4 leukemia, over 1000 µM. Besides, the GI50 is over 65.2 µM with SN12C renal; 353 µM in the assay on OVCAR-8 ovarian; 332 µM in the assay with NCI-H23 lung; 260 µM in the assay on NCI-H226 lung; 44 µM in the assay on SF-268 CNS; 107 µM in the assay on HOP-92 NSCLC.

In the case of `Fc1ccc2[nH]c3c(NCCCN4CCOCC4)ncnc3c2c1`, the GI50 in the assay with MALME-3M melanoma was 27.4 µM; in the assay on SN12C renal, 77.8 µM; with OVCAR-8 ovarian, 66.8 µM; in the assay on NCI-H23 lung, 51.4 µM; in the assay on NCI-H226 lung, 63.3 µM; in the assay with M14 melanoma, 36 µM. Also, the GI50 was 88.2 µM with SF-268 CNS, 13.5 µM with HOP-92 NSCLC, 66.4 µM in the assay on TK-10 renal and 50.7 µM in the assay with MOLT-4 leukemia. In addition, the TGI was 89.1 µM in the assay on MALME-3M melanoma; over 100 µM with SN12C renal; over 100 µM in the assay with OVCAR-8 ovarian; over 100 µM in the assay with NCI-H23 lung; over 100 µM with NCI-H226 lung; over 100 µM in the assay with M14 melanoma. Further, the TGI is over 100 µM with SF-268 CNS, 84.1 µM in the assay with HOP-92 NSCLC, over 100 µM in the assay on TK-10 renal and over 100 µM in the assay with MOLT-4 leukemia.

Turning to `Clc1nc(Cl)c2ncn(Cc3ccc(COc4cccc(OCc5ccc(Cn6cnc7c(Cl)nc(Cl)nc76)cc5)c4)cc3)c2n1`, the GI50 was 73.1 µM in the assay with MALME-3M melanoma; 92.4 µM in the assay with SN12C renal; 33.6 µM in the assay on OVCAR-8 ovarian; 71.4 µM with NCI-H23 lung; 21 µM in the assay on NCI-H226 lung; 21.9 µM with M14 melanoma. Further, the GI50 in the assay on SF-268 CNS is over 100 µM; with HOP-92 NSCLC, 36.2 µM; in the assay with TK-10 renal, 27 µM; in the assay on MOLT-4 leukemia, 8.6 µM. Further, the TGI with MALME-3M melanoma is over 100 µM; in the assay with SN12C renal, over 100 µM; with OVCAR-8 ovarian, over 100 µM; with NCI-H23 lung it was over 100 µM; in the assay with NCI-H226 lung, 60.3 µM; in the assay with M14 melanoma, 85.9 µM. For the same compound, the TGI with SF-268 CNS, with HOP-92 NSCLC, in the assay with TK-10 renal and in the assay with MOLT-4 leukemia was over 100 µM each time.

For the compound `CCCCCCCCCCCCCC(=O)CBr`, the TGI was found to be 23.6 µM with MALME-3M melanoma; 43.3 µM with SN12C renal; 35.6 µM in the assay with OVCAR-8 ovarian; 23 µM with NCI-H23 lung; 35.1 µM in the assay with NCI-H226 lung; 26.6 µM in the assay with M14 melanoma. Also, the TGI came to 20 µM in the assay with SF-268 CNS, 6.43 µM with HOP-92 NSCLC, 29.7 µM in the assay with TK-10 renal and 2.9 µM in the assay on MOLT-4 leukemia.

As to `c1cnc2[nH]cc(-c3csc(-c4cn(CCCCN5CCOCC5)c5ccccc45)n3)c2c1`, the GI50 in the assay with MALME-3M melanoma was 1.32 µM; with SN12C renal, 2.98 µM; with NCI-H23 lung, 2.04 µM; in the assay on NCI-H226 lung, 2.29 µM; with M14 melanoma it was 1.78 µM; with SF-268 CNS, 1.76 µM. Besides, the GI50 is 1.43 µM in the assay on HOP-92 NSCLC, 2.77 µM in the assay with TK-10 renal and 1.82 µM with MOLT-4 leukemia. Besides, the TGI with MALME-3M melanoma was found to be 2.96 µM; with SN12C renal it was 10.8 µM; with NCI-H23 lung, 4.49 µM; with NCI-H226 lung, 8.23 µM; in the assay on M14 melanoma, 3.62 µM; in the assay on SF-268 CNS, 3.71 µM. Moreover, the TGI was 3.13 µM in the assay with HOP-92 NSCLC, 7.24 µM in the assay with TK-10 renal and 3.67 µM with MOLT-4 leukemia.

Take `CC1=C(O)C(=O)C2C(=O)C1C(C)C2c1ccc(Cl)cc1` (stereo not given): the TGI with MALME-3M melanoma, in the assay on OVCAR-8 ovarian, in the assay with NCI-H23 lung, in the assay on NCI-H226 lung, in the assay on M14 melanoma and with SF-268 CNS was over 100 µM each time. Besides, the TGI in the assay on HOP-92 NSCLC, with TK-10 renal and in the assay on MOLT-4 leukemia was over 100 µM throughout.

Take `Nc1nc2c(c(=O)[nH]1)CN(c1ccc(S(N)(=O)=O)cc1)CN2`: the concentration for total growth inhibition (TGI) in the assay on MALME-3M melanoma, with SN12C renal, in the assay on OVCAR-8 ovarian, with NCI-H226 lung, in the assay with M14 melanoma and in the assay on SF-268 CNS was over 100 µM throughout. In addition, the TGI in the assay with HOP-92 NSCLC, in the assay with TK-10 renal and in the assay with MOLT-4 leukemia was over 100 µM each time.

In the case of `COc1cccc(C(=O)C2C(=O)N(C)CCc3ccccc32)c1OC` (stereo not given), the concentration for total growth inhibition (TGI) in the assay with MALME-3M melanoma, with SN12C renal, in the assay on OVCAR-8 ovarian, in the assay with NCI-H23 lung, in the assay on NCI-H226 lung and in the assay on M14 melanoma was over 100 µM throughout. For the same compound, the TGI in the assay on HOP-92 NSCLC, in the assay with TK-10 renal and with MOLT-4 leukemia was over 100 µM each time.
